The values below come from patent publication US7531554B2, “4-oxoquinoline compound and use thereof as HIV integrase inhibitor” (Japan Tobacco Inc., priority 2004, dated 2009).

One data set concerns the target T1, HIV integrase (Human immunodeficiency virus type 1 group M subtype B, UniProt P12497, F1332H).
T1 construct: HIV integrase full length gene (J. Virol., 67, 425-437 (1993)) in which phenylalanine at codon 185 was substituted by histidine; made in house; host or cells: Escherichia coli BL21(DE3)
The experiment in a line: Determination of enzyme (HIV integrase) inhibitory activity. Format: biochemical. The settings on record: recombinant integrase protein (F185H), donor DNA/target DNA, absorbance at 450 nm. The essentials:
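Full-length HIV integrase bearing F185H mutation, E. coli-expressed and purified, preincubated with compound on plate-bound biotinylated donor DNA for 60 min at 37 °C; digoxigenin-labelled target DNA then added for 10 min. Strand transfer detected by peroxidase anti-digoxigenin ELISA at 450 nm; IC50 from inhibition versus no-compound and no-enzyme controls.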

Where a name gives a salt, the structure may show the parent alone.

As for `O=C(O)c1cn(CCO)c2ccc(Cc3cccc(Cl)c3Cl)cc2c1=O`, the melting point lay in the range of 247 to 249 °C.
As for `CC(C)[C@@H](CO)n1cc(C(=O)O)c(=O)c2cc(Cc3cccc(Cl)c3F)c(OCC(=O)O)cc21` [Example 4-50, 7-(carboxymethoxy)-6-(3-chloro-2-fluorobenzyl)-1-((1S)-1-(hydroxymethyl)-2-methylpropyl)-4-oxo-1,4-dihydroquinoline-3-carboxylic acid], the IC50 at HIV integrase turned out to be 5.3 nM.
Turning to `CC(C)[C@@H](CO)n1cc(C(=O)O)c(=O)c2cc(Cc3cccc(Cl)c3F)c(OCCN3CCN(C)CC3)cc21` [Example 4-51, 6-(3-chloro-2-fluorobenzyl)-1-((1S)-1-(hydroxymethyl)-2-methylpropyl)-7-(2-(4-methylpiperazin-1-yl)ethoxy)-4-oxo-1,4-dihydroquinoline-3-carboxylic acid ditrifluoroacetate], the IC50 at HIV integrase came to 6 nM.
On the same count and under the same terms, the value for `CC(C)[C@@H](CO)n1cc(C(=O)O)c(=O)c2cc(Cc3cccc(Cl)c3F)c(OCS(N)(=O)=O)cc21` [Example 4-52, 7-((aminosulfonyl)methoxy)-6-(3-chloro-2-fluorobenzyl)-1-((1S)-1-(hydroxymethyl)-2-methylpropyl)-4-oxo-1,4-dihydroquinoline-3-carboxylic acid] was 6.6 nM.
`CC(C)[C@@H](CO)n1cc(C(=O)O)c(=O)c2cc(Cc3cccc(Cl)c3F)c(OCC(=O)N(C)C)cc21` [Example 4-53, 6-(3-chloro-2-fluorobenzyl)-7-((dimethylaminocarbonyl)methoxy)-1-((1S)-1-(hydroxymethyl)-2-methylpropyl)-4-oxo-1,4-dihydroquinoline-3-carboxylic acid]: on HIV integrase, the IC50 was 5 nM.
In the case of `CC(C)[C@@H](CO)n1cc(C(=O)O)c(=O)c2cc(Cc3cccc(Cl)c3F)c(O[C@H]3CCN(C)C3)cc21` [Example 4-54, 6-(3-chloro-2-fluorobenzyl)-1-((1S)-1-(hydroxymethyl)-2-methylpropyl)-7-((3S)-1-methylpyrrolidin-3-yloxy)-4-oxo-1,4-dihydroquinoline-3-carboxylic acid trifluoroacetate], at HIV integrase, the IC50 was found to be 7.1 nM.
For the compound `CC(C)[C@@H](CO)n1cc(C(=O)O)c(=O)c2cc(Cc3cccc(Cl)c3F)c(O[C@@H]3CCN(C)C3)cc21` [Example 4-55, 6-(3-chloro-2-fluorobenzyl)-1-((1S)-1-(hydroxymethyl)-2-methylpropyl)-7-((3R)-1-methylpyrrolidin-3-yloxy)-4-oxo-1,4-dihydroquinoline-3-carboxylic acid trifluoroacetate], the IC50 at HIV integrase came to 7.6 nM.
With `CC(C)[C@@H](CO)n1cc(C(=O)O)c(=O)c2cc(Cc3cccc(Cl)c3F)c(OCc3ccc(C#N)cc3)cc21` [Example 4-56, 6-(3-chloro-2-fluorobenzyl)-7-(4-cyanobenzyloxy)-1-((1S)-1-(hydroxymethyl)-2-methylpropyl)-4-oxo-1,4-dihydroquinoline-3-carboxylic acid], the IC50 at HIV integrase came to 5 nM.
Take `CC(C)[C@@H](CO)n1cc(C(=O)O)c(=O)c2cc(Cc3cccc(Cl)c3F)c(OCc3ccc(C(=O)O)cc3)cc21` [Example 4-57, 7-(4-carboxybenzyloxy)-6-(3-chloro-2-fluorobenzyl)-1-((1S)-1-(hydroxymethyl)-2-methylpropyl)-4-oxo-1,4-dihydroquinoline-3-carboxylic acid]: the IC50 at HIV integrase was found to be 3.8 nM.
As for `CC(C)[C@@H](CO)n1cc(C(=O)O)c(=O)c2cc(Cc3cccc(Cl)c3F)c(OCc3ccc(C(N)=O)cc3)cc21` [Example 4-58, 7-(4-(aminocarbonyl)benzyloxy)-6-(3-chloro-2-fluorobenzyl)-1-((1S)-1-(hydroxymethyl)-2-methylpropyl)-4-oxo-1,4-dihydroquinoline-3-carboxylic acid], on HIV integrase, the IC50 was 4.7 nM.
For the compound `CC(C)[C@@H](CO)n1cc(C(=O)O)c(=O)c2cc(Cc3cccc(Cl)c3F)c(OCc3ccccn3)cc21` [Example 4-59, 6-(3-chloro-2-fluorobenzyl)-1-((1S)-1-(hydroxymethyl)-2-methylpropyl)-4-oxo-7-(pyridin-2-ylmethoxy)-1,4-dihydroquinoline-3-carboxylic acid], the IC50 at HIV integrase was 3.6 nM.
Take `CC(C)[C@@H](CO)n1cc(C(=O)O)c(=O)c2cc(Cc3cccc(Cl)c3F)c(OCc3ccncc3)cc21` [Example 4-60, 6-(3-chloro-2-fluorobenzyl)-1-((1S)-1-(hydroxymethyl)-2-methylpropyl)-4-oxo-7-(pyridin-4-ylmethoxy)-1,4-dihydroquinoline-3-carboxylic acid]: on HIV integrase, the IC50 was 4.3 nM.
The same measure, in the same setting: the value for `CC(C)[C@@H](CO)n1cc(C(=O)O)c(=O)c2cc(Cc3cccc(Cl)c3F)c(OCc3cccnc3)cc21` [Example 4-61, 6-(3-chloro-2-fluorobenzyl)-1-((1S)-1-(hydroxymethyl)-2-methylpropyl)-4-oxo-7-(pyridin-3-ylmethoxy)-1,4-dihydroquinoline-3-carboxylic acid] was 4.9 nM.
Still for that read-out and setting: under `CC(C)[C@@H](CO)n1cc(C(=O)O)c(=O)c2cc(Cc3cccc(Cl)c3F)c(OCC(F)(F)F)cc21` [Example 4-62, 6-(3-chloro-2-fluorobenzyl)-1-((1S)-1-(hydroxymethyl)-2-methylpropyl)-4-oxo-7-(2,2,2-trifluoroethyloxy)-1,4-dihydroquinoline-3-carboxylic acid] stands 5.5 nM; under `CC(C)[C@@H](CO)n1cc(C(=O)O)c(=O)c2cc(Cc3cccc(Cl)c3F)c(OCc3ccc(S(N)(=O)=O)cc3)cc21` [Example 4-63, 7-(4-(aminosulfonyl)benzyloxy)-6-(3-chloro-2-fluorobenzyl)-1-((1S)-1-(hydroxymethyl)-2-methylpropyl)-4-oxo-1,4-dihydroquinoline-3-carboxylic acid], 3.6 nM; under `CC(C)[C@@H](CO)n1cc(C(=O)O)c(=O)c2cc(Cc3cccc(Cl)c3F)c(OC3CCN(S(C)(=O)=O)CC3)cc21` [Example 4-64, 6-(3-chloro-2-fluorobenzyl)-1-((1S)-1-(hydroxymethyl)-2-methylpropyl)-7-(1-mesylpiperidin-4-yloxy)-4-oxo-1,4-dihydroquinoline-3-carboxylic acid], 6.6 nM.
On to `CC(C)[C@H]1COc2cc(Cc3cccc(Cl)c3F)cc3c(=O)c(C(=O)O)cn1c23` [Example 5-1, (3S)-8-(3-chloro-2-fluorobenzyl)-3-isopropyl-6-oxo-2,3-dihydro-6H-1-oxa-3a-aza-phenalene-5-carboxylic acid], for which the IC50 at HIV integrase stood at 160 nM.
Regarding `O=C(O)c1cn2c3c(cc(Cc4cccc(Cl)c4F)cc3c1=O)OCC2CO` (stereo not shown) [Example 5-2, 8-(3-chloro-2-fluorobenzyl)-3-hydroxymethyl-6-oxo-2,3-dihydro-6H-1-oxa-3a-aza-phenalene-5-carboxylic acid], the IC50 on HIV integrase turned out to be 47 nM.
For the compound `CC(C)[C@@H](CO)n1cc(C(=O)O)c(=O)c2cc(Cc3cccc(Cl)c3F)c3c(c21)OCCO3` [Example 6-1, 10-(3-chloro-2-fluorobenzyl)-5-((1S)-1-hydroxymethyl-2-methylpropyl)-8-oxo-2,3,5,8-tetrahydro-1,4-dioxa-5-aza-phenanthrene-7-carboxylic acid], the IC50 at HIV integrase was found to be 5.9 nM.
Consider `COc1cc2c(cc1Cc1c(F)cccc1Cl)c(=O)c(C(=O)O)cn2[C@H](CO)C(C)C` [Example 7-1, 6-(2-chloro-6-fluorobenzyl)-1-((1S)-1-(hydroxymethyl)-2-methylpropyl)-7-methoxy-4-oxo-1,4-dihydroquinoline-3-carboxylic acid], for which the IC50 at HIV integrase worked out at 17 nM.
For the compound `COc1cc2c(cc1Cc1cccc(Cl)c1Cl)c(=O)c(C(=O)O)cn2[C@H](CO)C(C)C` [Example 7-2, 6-(2,3-dichlorobenzyl)-1-((1S)-1-(hydroxymethyl)-2-methylpropyl)-7-methoxy-4-oxo-1,4-dihydroquinoline-3-carboxylic acid], the IC50 at HIV integrase worked out at 4.5 nM.
Still for that read-out and setting: under `CC(C)[C@@H](CO)n1cc(C(=O)O)c(=O)c2cc(Cc3cccc(Cl)c3F)c(OCCO)cc21` [Example 7-3, 6-(3-chloro-2-fluorobenzyl)-7-(2-hydroxyethoxy)-1-((1S)-1-(hydroxymethyl)-2-methylpropyl)-4-oxo-1,4-dihydroquinoline-3-carboxylic acid] stands 3.5 nM; under `CC(C)[C@@H](CO)n1cc(C(=O)O)c(=O)c2cc(Cc3cccc(Cl)c3F)c(OCCCO)cc21` [Example 7-4, 6-(3-chloro-2-fluorobenzyl)-1-((1S)-1-(hydroxymethyl)-2-methylpropyl)-7-(3-hydroxypropoxy)-4-oxo-1,4-dihydroquinoline-3-carboxylic acid], 3.6 nM.
As for `CC(C)[C@@H](CO)n1cc(C(=O)O)c(=O)c2cc(Cc3cccc(Cl)c3F)c(O)cc21` [Example 7-5, 6-(3-chloro-2-fluorobenzyl)-7-hydroxy-1-((1S)-1-(hydroxymethyl)-2-methylpropyl)-4-oxo-1,4-dihydroquinoline-3-carboxylic acid], the IC50 on HIV integrase stood at 3.2 nM.
On to `CC(C)(C)[C@@H](CO)n1cc(C(=O)O)c(=O)c2cc(Cc3cccc(Cl)c3F)c(N3CCOCC3)cc21` [Example 7-6, 6-(3-chloro-2-fluorobenzyl)-1-((1S)-2,2-dimethyl-1-(hydroxymethyl)propyl)-7-(morpholin-4-yl)-4-oxo-1,4-dihydroquinoline-3-carboxylic acid], for which the IC50 at HIV integrase came out at 4.3 nM.
